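Values below derive from 48-hour exposures of cells grown in 96-well plates, with endpoints linearly interpolated between the two concentrations bracketing the appropriate inhibition level. GI50 = concentration required for 50% inhibition of growth. TGI: total growth inhibition.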
Key:
Assay in all cases: NCI anticancer screen, dose series, 48 h
[1] = test system: MDA-MB-231 breast
[2] = test system: NCI/ADR-RES ovarian
[3] = test system: OVCAR-4 ovarian
[4] = test system: SF-539 CNS
[5] = test system: A549 NSCLC
[6] = test system: PC-3 prostate
[7] = test system: EKVX NSCLC
[8] = test system: CAKI-1 renal
[9] = test system: HL-60(TB) leukemia
[10] = test system: M14 melanoma
[11] = test system: HOP-92 NSCLC
[12] = test system: NCI-H522 lung
[13] = test system: RPMI-8226 leukemia
[14] = test system: OVCAR-5 ovarian
[15] = test system: T-47D breast
[16] = test system: ACHN renal
[17] = test system: SK-OV-3 ovarian
[18] = test system: UACC-257 melanoma
[19] = test system: SF-295 CNS
[20] = test system: NCI-H23 lung
[21] = test system: TK-10 renal
[22] = test system: MDA-MB-435
[23] = test system: K-562 leukemia
[24] = test system: 786-0 renal
[25] = test system: NCI-H460 lung
[26] = test system: SN12C renal
[27] = test system: MOLT-4 leukemia
[28] = test system: SW-620 colon
[29] = test system: RXF 393 renal
[30] = test system: HCC-2998 colon
[31] = test system: HCT-15 colon
[32] = test system: IGROV1 ovarian
[33] = test system: KM12 colon
[34] = test system: MCF7 breast
[35] = test system: UACC-62 melanoma
[36] = test system: HOP-62 NSCLC
[37] = test system: U251 CNS
[38] = test system: NCI-H226 lung
[39] = test system: SK-MEL-28 melanoma
[40] = test system: SK-MEL-2 melanoma
[41] = test system: DU-145 prostate
[42] = test system: SF-268 CNS
[43] = test system: HCT-116 colon
[44] = test system: CCRF-CEM leukemia
[45] = test system: SK-MEL-5 melanoma
[46] = test system: OVCAR-8 ovarian
[47] = test system: HT29 colon
[48] = test system: LOX IMVI melanoma
[49] = test system: SNB-75 CNS
[50] = test system: SNB-19 CNS
[51] = test system: MALME-3M melanoma
[52] = test system: BT-549 breast
[53] = test system: UO-31 renal
[54] = test system: COLO 205 colon
[55] = test system: HS 578T breast
[56] = test system: OVCAR-3 ovarian
[57] = test system: A498 renal

CCOC(=O)CCC(NC(=O)c1ccc(Sc2nc3cc(N)cc(N)c3nc2-c2ccccc2)cc1)C(=O)OCC (configuration not stated)
GI50 [1]: 7.96 µM | TGI [1]: 35.1 µM | GI50 [2]: 21.6 µM | TGI [2]: > 100 µM | GI50 [3]: 2.28 µM | TGI [3]: > 73.2 µM | GI50 [4]: 0.0926 µM | TGI [4]: 14.7 µM | GI50 [5]: 2.9 µM | TGI [5]: > 100 µM | GI50 [6]: 2.61 µM | TGI [6]: > 100 µM | GI50 [7]: 13.7 µM | TGI [7]: > 77.6 µM | GI50 [8]: 2.03 µM | TGI [8]: > 41.6 µM | GI50 [9]: 0.298 µM | TGI [9]: > 100 µM | GI50 [10]: 3.34 µM | GI50 [11]: 2.74 µM | TGI [11]: 46.2 µM | GI50 [12]: 2.76 µM | GI50 [13]: 1.62 µM | TGI [13]: > 89.8 µM | GI50 [14]: 60.5 µM | TGI [14]: > 100 µM | GI50 [15]: > 53.9 µM | TGI [15]: > 100 µM | GI50 [16]: 1.3 µM | TGI [16]: 33.9 µM | GI50 [17]: 2.83 µM | TGI [17]: 53 µM | GI50 [18]: > 41.4 µM | TGI [18]: > 63.6 µM | GI50 [19]: 0.939 µM | TGI [19]: > 36.8 µM | GI50 [20]: 2.29 µM | TGI [20]: > 58 µM | GI50 [21]: 22.4 µM | TGI [21]: > 100 µM | GI50 [22]: 11.1 µM | TGI [22]: 33.5 µM | TGI [23]: 24.5 µM | GI50 [24]: 4.72 µM | TGI [24]: > 100 µM | GI50 [25]: 3.05 µM | TGI [25]: > 100 µM | GI50 [26]: 17.7 µM | TGI [26]: 44.5 µM | GI50 [27]: 0.726 µM | TGI [27]: > 100 µM | GI50 [28]: 2.38 µM | TGI [28]: > 100 µM | GI50 [29]: 3 µM | TGI [29]: 19.4 µM | GI50 [30]: 4.73 µM | TGI [30]: 17 µM | GI50 [31]: 1.8 µM | TGI [31]: > 65.6 µM | GI50 [32]: 6.91 µM | TGI [32]: > 100 µM | GI50 [33]: 2.19 µM | TGI [33]: > 86.6 µM | GI50 [34]: 0.626 µM | TGI [34]: > 100 µM | GI50 [35]: 1.03 µM | TGI [35]: > 62.4 µM | GI50 [36]: 2.23 µM | TGI [36]: 47.7 µM | GI50 [37]: 1.02 µM | TGI [37]: > 40.6 µM | GI50 [38]: 0.97 µM | TGI [38]: > 65.9 µM | GI50 [39]: 0.884 µM | TGI [39]: 32 µM | GI50 [40]: 4.22 µM | TGI [40]: 72.4 µM | GI50 [41]: 38.2 µM | TGI [41]: > 100 µM | GI50 [42]: 2.18 µM | TGI [42]: > 66.6 µM | GI50 [43]: 1.3 µM | TGI [43]: > 100 µM | GI50 [44]: 1.31 µM | TGI [44]: > 100 µM | GI50 [45]: 1.71 µM | TGI [45]: 5.55 µM | GI50 [46]: 2.78 µM | TGI [46]: > 63 µM | GI50 [47]: 0.755 µM | TGI [47]: > 100 µM | GI50 [48]: 0.48 µM | TGI [48]: > 29.3 µM | GI50 [49]: 32.2 µM | TGI [49]: 63.8 µM | GI50 [50]: 4.77 µM | TGI [50]: > 100 µM | GI50 [51]: 19.6 µM | TGI [51]: 37.2 µM | GI50 [52]: 2.3 µM | TGI [52]: 36.9 µM | GI50 [53]: 4.78 µM | TGI [53]: > 100 µM | GI50 [54]: 2.71 µM | GI50 [55]: 10.2 µM | TGI [55]: > 87.1 µM | GI50 [56]: 0.73 µM | TGI [56]: 2.88 µM

O=C(NC1CCCCC1)OCc1c(COC(=O)NC2CCCCC2)c(-c2ccc(Cl)c(Cl)c2)n2c1CCC2
GI50 [1]: 5.6 µM | TGI [1]: 50.7 µM | GI50 [2]: 4.24 µM | TGI [2]: 18.6 µM | GI50 [3]: 3.42 µM | TGI [3]: 62.9 µM | GI50 [4]: 3.06 µM | TGI [4]: 13.7 µM | GI50 [5]: 7.47 µM | TGI [5]: 94.2 µM | GI50 [6]: 6.05 µM | TGI [6]: 29.3 µM | GI50 [7]: 9.79 µM | TGI [7]: 94.4 µM | GI50 [8]: 2.35 µM | TGI [8]: > 100 µM | GI50 [9]: 2.24 µM | TGI [9]: > 100 µM | GI50 [57]: 1.59 µM | TGI [57]: 3.32 µM | GI50 [10]: 4.17 µM | TGI [10]: 16.3 µM | GI50 [11]: 1.94 µM | TGI [11]: 12.5 µM | GI50 [12]: 3.01 µM | TGI [12]: 11.8 µM | GI50 [13]: 4.55 µM | TGI [13]: 29 µM | GI50 [14]: 5.19 µM | TGI [14]: 44.3 µM | GI50 [15]: 3.83 µM | TGI [15]: 19.5 µM | GI50 [16]: 3.04 µM | TGI [16]: 41.6 µM | GI50 [17]: 2.58 µM | TGI [17]: 11.8 µM | GI50 [18]: 10.8 µM | TGI [18]: 37.4 µM | GI50 [19]: 3.38 µM | TGI [19]: 29.1 µM | GI50 [20]: 4.35 µM | TGI [20]: 21 µM | GI50 [21]: 3.72 µM | TGI [21]: 31.7 µM | GI50 [22]: 8.23 µM | TGI [22]: 28.8 µM | GI50 [23]: 4.83 µM | TGI [23]: > 100 µM | GI50 [24]: 3.26 µM | TGI [24]: 10.7 µM | GI50 [25]: 1.19 µM | TGI [25]: 14.1 µM | GI50 [26]: 3.58 µM | TGI [26]: > 100 µM | GI50 [27]: 2.6 µM | TGI [27]: > 100 µM | GI50 [28]: 3.89 µM | TGI [28]: 22.6 µM | GI50 [29]: 2.87 µM | TGI [29]: 9.36 µM | GI50 [30]: 10.5 µM | TGI [30]: 23 µM | GI50 [31]: 5.56 µM | TGI [31]: 43.2 µM | GI50 [32]: 5.62 µM | TGI [32]: > 100 µM | GI50 [33]: 11.9 µM | TGI [33]: 29.3 µM | GI50 [34]: 3.83 µM | TGI [34]: 27.9 µM | GI50 [35]: 2.37 µM | TGI [35]: 12.9 µM | GI50 [36]: 4.57 µM | TGI [36]: 21 µM | GI50 [37]: 4.43 µM | TGI [37]: 22.8 µM | GI50 [38]: 2.51 µM | TGI [38]: 22.4 µM | GI50 [39]: 14.2 µM | TGI [39]: 45.3 µM | GI50 [40]: 3.72 µM | TGI [40]: 12.7 µM | GI50 [41]: 3.72 µM | TGI [41]: 20.9 µM | GI50 [42]: 3.79 µM | TGI [42]: 21.3 µM | GI50 [43]: 3.72 µM | TGI [43]: 15.2 µM | GI50 [44]: 3.21 µM | TGI [44]: > 100 µM | GI50 [45]: 7.06 µM | TGI [45]: 20.8 µM | GI50 [46]: 4.3 µM | TGI [46]: 32.3 µM | GI50 [47]: 4.97 µM | TGI [47]: 71.4 µM | GI50 [48]: 2.98 µM | TGI [48]: 16.4 µM | GI50 [49]: 4.19 µM | TGI [49]: 25 µM | GI50 [50]: 5.79 µM | TGI [50]: 47.6 µM | GI50 [51]: 5.92 µM | TGI [51]: 22.7 µM | GI50 [52]: 3.53 µM | TGI [52]: 14.2 µM | GI50 [53]: 3.17 µM | TGI [53]: 16.2 µM | GI50 [54]: 4.2 µM | TGI [54]: 16.6 µM | GI50 [55]: 3.72 µM | TGI [55]: 21.4 µM | GI50 [56]: 5.32 µM | TGI [56]: 22.3 µM

Reference: PubChem BioAssay (NCI)
